As a reminder, the pIC50 is the negative decadic logarithm of the IC50, by convention in mol/L. The term CC50 denotes the concentration that lowers cell viability or growth by half. Lower therefore signals harm at low concentration.

Four compounds from patent US11840531B2, “CDK8/19 inhibitors” (JOINT STOCK COMPANY “BIOCAD”, priority 2018, dated 2023) can be followed below.

Molecules are shown by their SMILES. pIC50: −log10 of the molar value.

Series [1] is described as follows: Stability of the compounds in human blood plasma. The format is in vitro ADME. The conditions noted are these: pooled human blood plasma, 10 μM, 4 hours at 37° C. As to the method:
To assess the blood plasma stability of the compounds, we used pooled human blood plasma taken from ten healthy donors. The initial candidate solution (10 mM in DMSO) was diluted with pooled blood plasma to a concentration of 10 μm (test solution). The test solution was incubated in a dry block thermostat for 4 hours at 37° C. HPLC with Agilent 1200 liquid chromatography system (Agilent, USA) was employed to determine peak areas of the compounds in test samples, said peak areas corresponding to the initial test time (prior to incubation) and the final test time (after incubation in a dry block thermostat for 4 hours at 37° C.), proteins were preliminarily precipitated with acetonitrile. Chromatographic analysis was performed in a gradient elution regime with a flow rate of 1 mL/min Substance amount in % in a sample after thermostatting was determined.
The stability of the compounds was estimated. The compounds described herein show at least 90% chemical stability, i.e. they are chemically stable in human blood plasma (Table 2).

Series [2] can be described thus: Enzyme stability in human liver microsomes (Phase I). In kind it is in vitro ADME. The conditions noted are these: pH 7.4; 0.5 mg/mL pooled human liver microsomes, 10 μM compound, 37° C. As to the method:
Measuring of enzyme stability of the present compounds enabled estimation of their stability towards the action of Phase I biotransformation enzymes.
The rate of enzymatic decomposition of a compound was detected by incubating the reaction mixture in a dry block heater at 37° C.; the reaction mixture contained 0.5 mg/mL of pooled human liver microsomes (XenoTech, USA, cat #H6010), 10 μM of a compound, 2 mM β-nicotinamide adenine dinucleotide (Carbosynth, UK, cat #NN10871) and 4 mM of magnesium chloride in 0.1M sodium phosphate buffer (pH=7.4). The reaction was quenched with acetonitrile (100 μL of acetonitrile/100 μL of the reaction mixture). After quenching, the samples were centrifuged at 10000 rpm for 10 minutes. Supernatant fluid was tested by chromatographic technique using Agilent1200 (Agilent, USA). Chromatographic analysis was performed in a gradient elution regime with a flow rate of 1 mL/min. A graph of the logarithm of substance's peak area as a function of time was made. The dependent factor of the line corresponded to the elimination rate constant K based on which the drug's half-lif½e T and degradation rate CLint were calculated:
Based on the data obtained, candidates' enzyme stability in human liver microsomes was determined.

A short description of series [3]: Enzyme stability in human liver S9 fractions (Phase II). In kind it is in vitro ADME. The conditions noted are these: pH 7.4; 0.5 mg/mL pooled human liver S9 fractions, 10 μM compound, 37° C.; read-out: Enzyme stability Liver S9 fraction CLint. How it is done: Measuring of enzyme stability of the present compounds enabled estimation of their stability towards the action of Phase II biotransformation enzymes.
Enzyme degradation rate was measured by incubating the reaction mixture in a dry block thermostat at 37° C., said reaction mixture comprising 0.5 mg/mL of pooled human liver S9 fractions (XenoTech, USA, cat #H0610), 10 μM compound, 2 mM β-nicotinamide adenine dinucleotide (Carbosynth, UK, cat #NN10871) and 4 mM magnesium chloride in 0, 1 M sodium-phosphate buffer, pH=7, 4. The reaction was quenched with acetonitrile (100 μL of acetonitrile/100 μL of the reaction mixture). After quenching, the samples were centrifuged at 10000 rpm for 10 minutes. Supernatant fluid was tested by chromatographic technique using Agilent1200 (Agilent, USA). Chromatographic analysis was performed in a gradient elution regime with a flow rate of 1 mL/min A graph of the logarithm of substance's peak area as a function of time was made. The dependent factor of the line corresponded to the elimination rate constant K based on which the drug's half-life T½ and degradation rate CLint were calculated:
Based on the data obtained, candidates' enzyme stability in human liver S9 fractions was determined.

In series [4] the target is CDK8/Cyclin C (Homo sapiens (Human), UniProt P49336). Briefly: LanthaScreen binding to recombinant CDK8/Cyclin C. The conditions noted are these: TR-FRET, Tracer 236 10 nM, CDK8/Cyclin C 5 nM. As to the method: Capability of compounds of the present invention to bind to CDK8 protein was detected using LanthaScreen (ThermoFisher) assay. We detected FRET signal proportional to the amount of CDK8-bound fluorescently-labeled ligand (Tracer 236) that competes with inhibitor for ATP binding site. We carried out the measurements in a 15 μl reaction volume using a 384-well plate (Corning, #CLS4513). Enzyme CDK8/Cyclin C (ThermoFisher, #PR7261B) was mixed with antibodies Anti-His-tag-Biotin (ThermoFisher, #PV6090), Streptavidin-Eu (ThermoFisher, #PV6025), the resulting mixture was added to plate wells (5 MKπ/well). Final concentrations of substances were as follows: CDK8/Cyclin C—5 nM, Streptavidin-Eu—3 nM, Anti-His-tag-Biotin—3 nM. Staurosporine (S4400, Sigma) was used as a reference inhibitor, and 0.1% solution of dimethyl sulphoxide (DMSO) in reaction buffer was used as a blank, the reaction buffer comprised 250 mM HEPES (pH 7.5), 50 mM MgCl2, 5 mM EGTA, and 0.05% Brij-35.
Chain of CDK8/Cyclin C (P49336 whole entry): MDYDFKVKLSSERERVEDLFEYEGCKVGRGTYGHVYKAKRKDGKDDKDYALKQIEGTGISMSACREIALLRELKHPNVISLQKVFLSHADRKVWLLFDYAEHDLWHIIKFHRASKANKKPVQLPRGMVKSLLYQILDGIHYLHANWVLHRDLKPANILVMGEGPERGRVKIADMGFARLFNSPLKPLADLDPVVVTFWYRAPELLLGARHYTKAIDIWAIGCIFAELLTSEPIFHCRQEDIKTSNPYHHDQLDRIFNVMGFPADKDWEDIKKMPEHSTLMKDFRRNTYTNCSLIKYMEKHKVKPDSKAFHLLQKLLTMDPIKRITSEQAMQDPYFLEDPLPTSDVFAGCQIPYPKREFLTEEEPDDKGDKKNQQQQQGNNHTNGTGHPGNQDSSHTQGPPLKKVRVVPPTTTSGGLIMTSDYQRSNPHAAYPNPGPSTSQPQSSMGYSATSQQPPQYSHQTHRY
Chain of CDK8/Cyclin C (P24863 whole entry partner): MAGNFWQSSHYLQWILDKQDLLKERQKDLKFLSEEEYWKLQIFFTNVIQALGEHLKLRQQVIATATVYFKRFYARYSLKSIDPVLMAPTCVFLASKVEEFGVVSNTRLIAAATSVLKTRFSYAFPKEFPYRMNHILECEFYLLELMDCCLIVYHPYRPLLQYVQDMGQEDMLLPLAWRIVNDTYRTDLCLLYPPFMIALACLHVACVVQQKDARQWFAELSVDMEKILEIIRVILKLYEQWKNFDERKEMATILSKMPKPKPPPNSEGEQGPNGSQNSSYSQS
The inhibitors and controls in question were added to corresponding wells (5 μl/well). The plate was incubated at room temperature for 20 minutes. After incubating, 5 μl/well of tracer solution Alexa Fluor-647 (Kinase Tracer 236, ThermoFisher, #PV5592)) was added to the wells. Final concentration of tracer was 10 nM. Reaction buffer, instead of tracer solution, was used as a negative control. The plate was incubated for 40 minutes at 25° C., TR-FRET signal was then measured according to the manufacturer's guidelines on SPARK20 plate reader (Tecan, Switzerland), and the value was converted to the amount of kinase-bound tracer. IC50 values were calculated using SparkControl Magellan 1.2 software (Tecan, Switzerland) approximating experimental points by four-parameter logistic model with the optimization by Levenberg-Marquardt (Table 5).

For series [5], the system named is MV4-11 cells. Briefly: Antiproliferative activity, MV4-11 cells (AlamarBlue). Particulars: Homo sapiens, 120 h incubation, read-out: MV-4-11 IC50. The format is cell-based. As to the method: (§1) Antiproliferative activity of CDK8 inhibitors according to the present invention was measured in a cell-based test on continuous cell cultures MV4-11 (biphenotypic myelomonocytic leukemia, ATCC® CRL-9591™), KG-1 (acute myeloid leukemia, ATCC® CCL-246™) using a vital stain AlamarBlue (ThermoFisher, #DAL1100). The cells were grown in RPMI-1640 (PanEco, #C330p) medium with addition of 10% FBS (Gibco, #16140-071); washed and resuspended in culture medium with 10% FBS (Gibco, #16140-071) in 96-well culture plates (Corning, #3599) with ≈10×10^3 cells in […] of medium per well. The compounds in question were dissolved in DMSO and diluted with a medium with 10% FBS (Gibco, #16140-071) to a final concentration ranging from 0 to 100 μM. […] of diluted compounds were then added to each well (final DMSO concentration was less than 1%) and incubated under 5% CO2 atmosphere at 37° C. for 120 h. After incubating, 15 μL/well of AlamarBlue (ThermoFisher, #DAL1100) reagent was added, contents of plates were mixed in an orbital shaker (Biosan, Latvia) and further incubated for 3-5 h at 37° C. under 5% CO2 atmosphere. Number of living cells was estimated using a microplate spectrophotometer (Tecan Infinite M200Pro, Switzerland) measuring fluorescent signal at the excitation wavelength (λEx) of 540 nm and emission wavelength (λEm) of 590 nm.
(§2) IC50 values were calculated using Magellan 7.2 software (Tecan, Switzerland) approximating experimental points by four-parameter logistic model with the optimization by Levenberg-Marquardt (Table 6).
Background: Alamar Blue is a resazurin reagent that responds to reducing activity.

Series [6] concerns KG-1 cells. As to the kind of experiment: Antiproliferative activity, KG-1 cells (AlamarBlue). The format is cell-based. The conditions noted are these: Homo sapiens, KG-1, 120 h, 120 h incubation. As to the method: as §1, §2
Series [7] in a line: General cytotoxicity on HepG2 cells. The format is cell-based. The conditions noted are these: human, 72 h incubation. As to the method:
The CC50 values were determined in the test for General cytotoxicity On HepG2 cells (hepatocellular carcinoma, ATCC® HB-8065™). Cells per well were seeded in 96-well plates (Corning, #3599) at a concentration ≈20×10^3 cells in 100 μL of medium and incubated for 72 h with added compounds within the range of concentrations of 200 to 0.78 μM. Cell viability was assessed using the above method.

For `CN1CCN(C(=O)Cn2cc(-c3ccc(-c4cnc(N)c5ncc(C(=O)NC6CC6)cc45)cc3)cn2)CC1` [Compound 3.47, 8-amino-N-cyclopropyl-5-(4-(1-(2-(4-methylpiperazin-1-yl)-2-oxoethyl)-1H-pyrazole-4-yl)phenyl)-1,7-naphthyridine-3-carboxamide], the “Chemical stability in human blood plasma 4 h, %” value (“Chemical stability … %” below) in series [1] stood at 96.5%. The microsomal CLint at 10 μM in series [2] amounted to 5.6 µL/min/mg; in series [3], 1.5 µL/min/mg. Also, the negative logarithm of the IC50 (pIC50) was 8.96 in series [4], 8.96 in series [5] and 8.48 in series [6]. Further, the CC50 at 72 h in series [7] is > 100000 nM.
Turning to `CN1CCN(C(=O)Cn2cc(-c3ccc(-c4cnc(N)c5ncc(C(=O)N6CCC6)cc45)cc3)cn2)CC1` [Compound 3.53, 2-(4-(4-(8-amino-3-(azetidine-1-carbonyl)-1,7-naphthyridine-5-yl)phenyl)-1H-pyrazole-1-yl)-1-(4-methylpiperazine-1-yl)ethan-1-one], the “Chemical stability … %” value in series [1] was 100.0%. Further, the figures for the microsomal CLint at 10 μM in series [2] and in series [3] were 7.8 µL/min/mg and 7.1 µL/min/mg, respectively. Further, the negative-log IC50 (pIC50) in series [4] was 9.00; in series [5], 8.89; in series [6], 8.62. In addition, the cytotoxic concentration (CC50) at 72 h in series [7] was ~90000 nM.
With `CN(C)C(=O)Cn1cc(-c2ccc(-c3cnc(N)c4ncc(C(=O)NC5CC5)cc34)cc2)cn1` [Compound 3.46, 8-amino-N-cyclopropyl-5-(4-(1-(2-(dimethylamino)-2-oxoethyl)-1H-pyrazole-4-yl)phenyl)-1,7-naphthyridine-3-carboxamide], the “Chemical stability … %” value in series [1] turned out to be 96.5%. In addition, the microsomal CLint at 10 μM in series [2] worked out at 2.6 µL/min/mg; in series [3] it was 0.5 µL/min/mg. Also, the results for the negative logarithm of the IC50 (pIC50) in series [4], in series [5] and in series [6] were 8.95, 9.15 and 8.96, respectively. Besides, the CC50 at 72 h in series [7] was > 100000 nM.
Turning to `CN1CCN(C(=O)c2cnc3c(N)ncc(-c4ccc(-c5cnn(CC(=O)N(C)C)c5)cc4)c3c2)CC1` [Compound 3.49, 2-(4-(4-(8-amino-3-(4-methylpiperazine-1-carbonyl)-1,7-naphthyridine-5-yl)phenyl) -1H-pyrazole-1-yl)-N,N-dimethylacetamide], in series [1], the “Chemical stability … %” value amounted to 100.0%. Further, the figures for the microsomal CLint at 10 μM in series [2] and in series [3] were 7 µL/min/mg and 1.4 µL/min/mg, respectively. The pIC50 in series [4] is 8.73; in series [5], 8.55; in series [6], 7.89. Further, in series [7], the CC50 at 72 h was > 100000 nM.
